# In PubChem BioAssay (NCI):
# “And” between values parts separate entries of the source, which are not always exact repeats. Equal entries are not always repeated.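 Step 1: Grow cells in 96-well plates. Step 2: Expose to compound for 48 hours at 5 concentrations. Step 3: Interpolate endpoints linearly; if unreached, use highest concentration. Here, GI50 denotes the concentration required for 50% inhibition of growth. Definition used: TGI = concentration required for complete inhibition of growth.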
# How the values were obtained:
# Assay in all cases: DTP human tumour cell line panel, 48 h
# KM12 colon = test system: KM12 colon
# HOP-62 NSCLC = test system: HOP-62 NSCLC
# RPMI-8226 leukemia = test system: RPMI-8226 leukemia
# M14 melanoma = test system: M14 melanoma
# RXF 393 renal = test system: RXF 393 renal
# OVCAR-5 ovarian = test system: OVCAR-5 ovarian
# OVCAR-8 ovarian = test system: OVCAR-8 ovarian
# NCI-H23 lung = test system: NCI-H23 lung
# NCI-H522 lung = test system: NCI-H522 lung
# SK-MEL-28 melanoma = test system: SK-MEL-28 melanoma
Structure (SMILES),TGI (KM12 colon) [µM],TGI (HOP-62 NSCLC) [µM],TGI (RPMI-8226 leukemia) [µM],TGI (M14 melanoma) [µM],TGI (RXF 393 renal) [µM],TGI (OVCAR-5 ovarian) [µM],TGI (OVCAR-8 ovarian) [µM],TGI (NCI-H23 lung),TGI (NCI-H522 lung) [µM],TGI (SK-MEL-28 melanoma) [µM],GI50 (HOP-62 NSCLC),GI50 (M14 melanoma) [µM],GI50 (RXF 393 renal) [nM],GI50 (OVCAR-5 ovarian) [µM],GI50 (NCI-H23 lung) [µM],GI50 (NCI-H522 lung) [µM],GI50 (SK-MEL-28 melanoma) [µM],GI50 (KM12 colon) [µM],GI50 (RPMI-8226 leukemia) [µM],GI50 (OVCAR-8 ovarian) [µM]
CC[C@H]1[C@@H](C)C=C[C@@H](C)N1S(=O)(=O)c1ccc(C)cc1,> 100,> 100,> 100,> 100,> 100,> 100,> 100,> 100 µM,> 100,> 100,,,,,,,,,,
O=C(Cc1c(C(=O)Nc2ccccc2)sc(C(=O)Nc2ccccc2)c1CC(=O)Nc1ccccc1)Nc1ccccc1,> 100,> 100,> 100,> 100,> 100,> 100,> 100,> 100 µM,> 100,19.8,,,,,,,,,,
CC1OC(n2ccc3ccc([N+](=O)[O-])cc32)C(O)C(O)C1O (stereo unspecified),> 100,> 100,> 100,> 100,> 100,> 100,> 100,> 100 µM,> 100,> 100,,,,,,,,,,
CC[C@@]1(O)C(=O)OCc2c1cc1n(c2=O)Cc2cc3c(OC)cccc3nc2-1,5.86,,1.81,1.61,,7.13,1.9,0.0775 µM and 0.505 µM,2.12,> 28.1,0.000532 µM and < 0.215 µM,0.00323,0.0413,0.0386,0.0069,0.028,1.72,,,
C=CCC1=C2CCCCC2CCC1=O (stereo unspecified),> 100,> 100,> 100,> 100,> 100,> 100,> 100,> 100 µM,> 100,> 100,,,,,,,,,,
Cc1cc(S(=O)(=O)Nc2n[nH]c(-c3ccc(Cl)cc3)c2C#N)c(S)cc1Cl,> 100,> 100,> 100,> 100,> 100,> 100,> 100,> 100 µM,> 100,> 100,> 100 µM,> 100,> 100000,> 100,> 100,> 100,> 100,> 100,> 100,> 100
Cc1cc2c(=O)cc(-c3ccc(Cl)cc3Cl)oc2c(C(=O)O)c1C,> 100,,> 100,> 100,> 100,> 100,> 100,> 100 µM,> 100,> 100,,,,,,,,,,
NC(=S)N/N=C/c1cn(CCCl)c2ccccc12,> 100,> 100,> 100,> 100,> 100,> 100,> 100,> 100 µM,> 100,> 100,,,,,,,,,,
COc1ccc(/C=C/C(=O)c2ccc(B(O)O)cc2)cc1O,15,> 57.2,23,29.6,39.6,69.5,> 77.9,69.4 µM,45.1,> 89.5,18.5 µM,8.03,11500,21.5,21,17.8,22.3,3.96,3.27,28.3
O=C(NCCNc1nccc(-c2c(-c3ccc(F)cc3)nc3sccn23)n1)Nc1cccc(C(F)(F)F)c1,23.9,10.1,34,21.8,6.05,54.4,27.4,26.4 µM,26,20.9,2.9 µM,8.73,1990,18.5,8.73,12.2,7.76,6.43,3.52,3.76
COC(=O)Nc1nc2ccc(C(=O)C3CC3)cc2[nH]1,1.68,> 42.2,0.696,,,> 56.1,> 100,> 27.6 µM,16.4,> 63.7,0.523 µM,0.276,345,3.25,0.47,0.426,0.506,0.283,0.219,0.668
CN1CCN(C(=O)OCc2nc3c(N4CCOCC4)nc(-c4ccccc4)nc3n2C)CC1,3.53,3.79,1.87,2.44,1.98,3,3.04,3.21 µM,2.4,2.81,1.53 µM,1.07,687,1.46,1.54,0.596,1.48,1.55,0.335,1.17
N#C/C(=C\c1ccc([N+](=O)[O-])cc1)n1nnc2cc(F)c(F)cc21,4.39,4.11,6.67,3.74,2.39,3.41,6.17,4.08 µM,3.79,4.97,1.78 µM,1.83,1040,1.77,1.87,1.66,2.26,2.02,2.42,2.14
COc1ccc(-c2nc(Nc3ccc(F)cc3)nc(Nc3ccc4c(c3)nc(C)n4Cc3ccccc3)n2)cc1,33.8,> 100,88.1,> 100,9.54,68.9,> 100,> 100 µM,> 100,> 100,8.47 µM,3.72,2530,3.26,6.54,5.92,4.14,3.55,2.48,3.45
CCOC(=O)c1cc2c(OC)cc(OC)cc2oc1=O,,> 100,> 100,> 100,> 100,> 100,> 100,> 100 µM,> 100,> 100,,,,,,,,,,
